{"source": "patent US8952024B2", "about": "“Herbicidal pyrimidone derivatives” (E I du Pont de Nemours and Company, priority 2009, dated 2015)", "format_in_all_cases": "in vivo", "key": {"[1]": {"system": "barnyardgrass (Echinochloa crus-galli)", "assay": "Test A pre-/postemergence plant response", "procedure,_shortened": "(§1)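 Approximately ten days after concurrent pre- and postemergence spraying in a greenhouse, plants were compared with untreated controls and rated visually for injury, 0 = no effect to 100 = complete control. Preemergence spray was directed onto loam/sand soil; postemergence targeted 1–2 leaf seedlings.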"}, "[2]": {"system": "pigweed (Amaranthus retroflexus)", "assay": "Test A pre-/postemergence plant response", "procedure,_shortened": "as §1"}, "[3]": {"system": "Italian ryegrass (Lolium multiflorum)", "assay": "Test B pre-/postemergence plant response", "procedure,_shortened": "(§2)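 Ratings reflect visual comparison with untreated controls 13 to 15 days after application, from 0 (no effect) to 100 (complete control). Application was preemergence to seeded loam/sand soil or postemergence to 1- to 4-leaf plants, with compound in a non-phytotoxic, surfactant-containing solvent.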"}, "[4]": {"system": "Surinam grass (Brachiaria decumbens)", "assay": "Test B pre-/postemergence plant response", "procedure,_shortened": "as §2"}, "[5]": {"system": "blackgrass (Alopecurus myosuroides)", "assay": "Test B pre-/postemergence plant response", "procedure,_shortened": "as §2"}, "[6]": {"system": "downy bromegrass (Bromus tectorum)", "assay": "Test B pre-/postemergence plant response", "procedure,_shortened": "as §2"}, "[7]": {"system": "goosegrass (Eleusine indica)", "assay": "Test B pre-/postemergence plant response", "procedure,_shortened": "as §2"}, "[8]": {"system": "large crabgrass (Digitaria sanguinalis)", "assay": "Test B pre-/postemergence plant response", "procedure,_shortened": "as §2"}, "[9]": {"system": "morningglory (Ipomoea coccinea)", "assay": "Test B pre-/postemergence plant response", "procedure,_shortened": "as §2"}, "[10]": {"system": "velvetleaf (Abutilon theophrasti)", "assay": "Test B pre-/postemergence plant response", "procedure,_shortened": "as §2"}, "[11]": {"system": "wheat (Triticum aestivum)", "assay": "Test B pre-/postemergence plant response", "procedure,_shortened": "as §2"}, "[12]": {"system": "woolly cupgrass (Eriochloa villosa)", "assay": "Test B pre-/postemergence plant response", "procedure,_shortened": "as §2"}, "[13]": {"system": "yellow nutsedge (Cyperus esculentus)", "assay": "Test B pre-/postemergence plant response", "procedure,_shortened": "as §2"}, "[14]": {"details": "Postemergence, 125 g ai/ha, visual injury, 0 to 100 scale (0 no effect, 100 complete control), approx. ten days"}, "[15]": {"details": "Postemergence, 500 g ai/ha, 0 to 100 scale, 0 = no effect, 100 = complete control, approx. ten days"}, "[16]": {"details": "Preemergence, 125 g ai/ha, 0 to 100 scale, 0 = no effect, 100 = complete control"}, "[17]": {"details": "Preemergence, 500 g ai/ha, visual injury, 0 to 100 scale (0 no effect, 100 complete control), approx. ten days"}, "[18]": {"details": "250 g ai/ha, Preemergence, 0 to 100 scale"}, "[19]": {"details": "Postemergence, 31 g ai/ha, scale 0 to 100 (0 no effect, 100 complete control)"}, "[20]": {"details": "Postemergence, 62 g ai/ha, scale 0 (no effect) to 100 (complete control), 13 to 15 days"}, "[21]": {"details": "Postemergence, 125 g ai/ha, visual rating after 13 to 15 days, scale 0 (no effect) to 100 (complete control)"}, "[22]": {"details": "Postemergence, 250 g ai/ha, scale 0 to 100"}, "[23]": {"details": "Preemergence, 31 g ai/ha, scale 0 to 100 (0 no effect, 100 complete control)"}, "[24]": {"details": "Preemergence, 62 g ai/ha, scale 0 to 100, 0 no effect, 100 complete control"}, "[25]": {"details": "Preemergence, 125 g ai/ha, 0 to 100 scale"}}, "data": [{"substance": "5-[(2-hydroxy-6-oxo-1-cyclohexen-1-yl)carbonyl]-3-phenyl-2-(3-pyridinyl)-4(3H)-pyrimidone [Compound 113]", "values": [{"measurement": "Barnyardgrass plant response rating", "setting": "[1]; [14]", "result": 30}, {"measurement": "Plant response rating, Barnyardgrass", "setting": "[1]; [15]", "result": 70}, {"measurement": "Plant response rating, Barnyardgrass", "setting": "[1]; [16]", "result": 0}, {"measurement": "Plant response rating, Barnyardgrass", "setting": "[1]; [17]", "result": 10}, {"measurement": "Pigweed plant response rating", "setting": "[2]; [14]", "result": 80}, {"measurement": "Plant response rating, Pigweed", "setting": "[2]; [15]", "result": 100}, {"measurement": "Plant response rating, Pigweed", "setting": "[2]; [16]", "result": 10}, {"measurement": "Plant response rating, Pigweed", "setting": "[2]; [17]", "result": 80}, {"measurement": "Plant response rating, Ryegrass, Italian", "setting": "[3]; [18]", "result": 0}, {"measurement": "Plant response rating, Ryegrass, Italian", "setting": "[3]; [19]", "result": 0}, {"measurement": "Plant response rating, Ryegrass, Italian", "setting": "[3]; [20]", "result": 0}, {"measurement": "Plant response rating, Ryegrass, Italian", "setting": "[3]; [21]", "result": 0}, {"measurement": "Ryegrass, Italian plant response rating", "setting": "[3]; [22]", "result": 20}, {"measurement": "Plant response rating, Ryegrass, Italian", "setting": "[3]; [23]", "result": 0}, {"measurement": "Plant response rating, Ryegrass, Italian", "setting": "[3]; [24]", "result": 0}, {"measurement": "Ryegrass, Italian plant response rating", "setting": "[3]; [25]", "result": 0}, {"measurement": "Plant response rating, Surinam Grass", "setting": "[4]; [18]", "result": 10}, {"measurement": "Plant response rating, Surinam Grass", "setting": "[4]; [19]", "result": 0}, {"measurement": "Plant response rating, Surinam Grass", "setting": "[4]; [20]", "result": 10}, {"measurement": "Plant response rating, Surinam Grass", "setting": "[4]; [21]", "result": 20}, {"measurement": "Surinam Grass plant response rating", "setting": "[4]; [22]", "result": 25}, {"measurement": "Plant response rating, Surinam Grass", "setting": "[4]; [23]", "result": 0}, {"measurement": "Plant response rating, Surinam Grass", "setting": "[4]; [24]", "result": 0}, {"measurement": "Surinam Grass plant response rating", "setting": "[4]; [25]", "result": 0}, {"measurement": "Plant response rating, Blackgrass", "setting": "[5]; [18]", "result": 0}, {"measurement": "Plant response rating, Blackgrass", "setting": "[5]; [19]", "result": 0}, {"measurement": "Plant response rating, Blackgrass", "setting": "[5]; [20]", "result": 0}, {"measurement": "Plant response rating, Blackgrass", "setting": "[5]; [21]", "result": 0}, {"measurement": "Blackgrass plant response rating", "setting": "[5]; [22]", "result": 5}, {"measurement": "Plant response rating, Blackgrass", "setting": "[5]; [23]", "result": 0}, {"measurement": "Plant response rating, Blackgrass", "setting": "[5]; [24]", "result": 0}, {"measurement": "Blackgrass plant response rating", "setting": "[5]; [25]", "result": 0}, {"measurement": "Plant response rating, Bromegrass, Downy", "setting": "[6]; [18]", "result": 0}, {"measurement": "Plant response rating, Bromegrass, Downy", "setting": "[6]; [19]", "result": 0}, {"measurement": "Plant response rating, Bromegrass, Downy", "setting": "[6]; [20]", "result": 0}, {"measurement": "Plant response rating, Bromegrass, Downy", "setting": "[6]; [21]", "result": 5}, {"measurement": "Bromegrass, Downy plant response rating", "setting": "[6]; [22]", "result": 5}, {"measurement": "Plant response rating, Bromegrass, Downy", "setting": "[6]; [23]", "result": 0}, {"measurement": "Plant response rating, Bromegrass, Downy", "setting": "[6]; [24]", "result": 0}, {"measurement": "Bromegrass, Downy plant response rating", "setting": "[6]; [25]", "result": 0}, {"measurement": "Plant response rating, Goosegrass", "setting": "[7]; [18]", "result": 60}, {"measurement": "Plant response rating, Goosegrass", "setting": "[7]; [19]", "result": 20}, {"measurement": "Plant response rating, Goosegrass", "setting": "[7]; [20]", "result": 25}, {"measurement": "Plant response rating, Goosegrass", "setting": "[7]; [21]", "result": 35}, {"measurement": "Goosegrass plant response rating", "setting": "[7]; [22]", "result": 35}, {"measurement": "Plant response rating, Goosegrass", "setting": "[7]; [23]", "result": 10}, {"measurement": "Goosegrass plant response rating", "setting": "[7]; [25]", "result": 45}, {"measurement": "Plant response rating, Crabgrass, Large", "setting": "[8]; [18]", "result": 95}, {"measurement": "Plant response rating, Crabgrass, Large", "setting": "[8]; [19]", "result": 30}, {"measurement": "Plant response rating, Crabgrass, Large", "setting": "[8]; [20]", "result": 45}, {"measurement": "Plant response rating, Crabgrass, Large", "setting": "[8]; [21]", "result": 45}, {"measurement": "Crabgrass, Large plant response rating", "setting": "[8]; [22]", "result": 60}, {"measurement": "Plant response rating, Crabgrass, Large", "setting": "[8]; [23]", "result": 0}, {"measurement": "Plant response rating, Crabgrass, Large", "setting": "[8]; [24]", "result": 0}, {"measurement": "Crabgrass, Large plant response rating", "setting": "[8]; [25]", "result": 45}, {"measurement": "Plant response rating, Morningglory", "setting": "[9]; [18]", "result": 20}, {"measurement": "Plant response rating, Morningglory", "setting": "[9]; [19]", "result": 15}, {"measurement": "Plant response rating, Morningglory", "setting": "[9]; [20]", "result": 15}, {"measurement": "Plant response rating, Morningglory", "setting": "[9]; [21]", "result": 15}, {"measurement": "Morningglory plant response rating", "setting": "[9]; [22]", "result": 20}, {"measurement": "Plant response rating, Morningglory", "setting": "[9]; [24]", "result": 0}, {"measurement": "Morningglory plant response rating", "setting": "[9]; [25]", "result": 0}, {"measurement": "Plant response rating, Velvetleaf", "setting": "[10]; [18]", "result": 100}, {"measurement": "Plant response rating, Velvetleaf", "setting": "[10]; [19]", "result": 70}, {"measurement": "Plant response rating, Velvetleaf", "setting": "[10]; [20]", "result": 80}, {"measurement": "Plant response rating, Velvetleaf", "setting": "[10]; [21]", "result": 90}, {"measurement": "Velvetleaf plant response rating", "setting": "[10]; [22]", "result": 98}, {"measurement": "Plant response rating, Velvetleaf", "setting": "[10]; [23]", "result": 40}, {"measurement": "Plant response rating, Velvetleaf", "setting": "[10]; [24]", "result": 85}, {"measurement": "Velvetleaf plant response rating", "setting": "[10]; [25]", "result": 100}, {"measurement": "Plant response rating, Wheat", "setting": "[11]; [18]", "result": 0}, {"measurement": "Plant response rating, Wheat", "setting": "[11]; [19]", "result": 0}, {"measurement": "Plant response rating, Wheat", "setting": "[11]; [20]", "result": 0}, {"measurement": "Plant response rating, Wheat", "setting": "[11]; [21]", "result": 10}, {"measurement": "Wheat plant response rating", "setting": "[11]; [22]", "result": 15}, {"measurement": "Plant response rating, Wheat", "setting": "[11]; [23]", "result": 0}, {"measurement": "Plant response rating, Wheat", "setting": "[11]; [24]", "result": 0}, {"measurement": "Wheat plant response rating", "setting": "[11]; [25]", "result": 0}, {"measurement": "Plant response rating, Cupgrass, Woolly", "setting": "[12]; [18]", "result": 45}, {"measurement": "Plant response rating, Cupgrass, Woolly", "setting": "[12]; [19]", "result": 0}, {"measurement": "Plant response rating, Cupgrass, Woolly", "setting": "[12]; [20]", "result": 50}, {"measurement": "Plant response rating, Cupgrass, Woolly", "setting": "[12]; [21]", "result": 50}, {"measurement": "Cupgrass, Woolly plant response rating", "setting": "[12]; [22]", "result": 65}, {"measurement": "Plant response rating, Cupgrass, Woolly", "setting": "[12]; [23]", "result": 0}, {"measurement": "Plant response rating, Cupgrass, Woolly", "setting": "[12]; [24]", "result": 0}, {"measurement": "Cupgrass, Woolly plant response rating", "setting": "[12]; [25]", "result": 0}, {"measurement": "Plant response rating, Nutsedge, Yellow", "setting": "[13]; [18]", "result": 55}, {"measurement": "Plant response rating, Nutsedge, Yellow", "setting": "[13]; [19]", "result": 0}, {"measurement": "Plant response rating, Nutsedge, Yellow", "setting": "[13]; [20]", "result": 0}, {"measurement": "Plant response rating, Nutsedge, Yellow", "setting": "[13]; [21]", "result": 0}, {"measurement": "Nutsedge, Yellow plant response rating", "setting": "[13]; [22]", "result": 0}, {"measurement": "Plant response rating, Nutsedge, Yellow", "setting": "[13]; [23]", "result": 0}, {"measurement": "Plant response rating, Nutsedge, Yellow", "setting": "[13]; [24]", "result": 10}, {"measurement": "Nutsedge, Yellow plant response rating", "setting": "[13]; [25]", "result": 15}]}]}
